According to PubChem BioAssay AID248 (DTP/NCI, 2004):
Values joined by “and” are separate entries in the source; they are usually repeats but may differ in a detail not shown here. Equal values may be shown once. Inconclusive results and toxic doses are left out. No stated cut-off is given here; in the data, active means T/C of 150% or more; inactive means T/C below 125%. Peptide text beside a SMILES is read from it. * marks the point of attachment. Boc = CC(C)(C)OC(=O)*; OtBu = CC(C)(C)O*; NHNH2 = NN*

System: L1210 leukemia ip in BDF1 mice, survival T/C
Assay: NCI In Vivo Anticancer Drug Screen. Data for tumor model L1210 Leukemia (intraperitoneal) in B6D2F1 (BDF1) mice
Conditions: endpoint: mean survival time, higher = longer survival
Method in brief: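 Tumor cells were implanted, animals were treated, and survival was followed. The result divides the treated measurement by the vehicle-control measurement.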

[1] = dose: 100.0 mg/kg/injection, schedule: Q04DX003 (ip), vehicle: saline
[2] = dose: 200.0 mg/kg/injection, schedule: Q04DX003 (ip), vehicle: saline
[3] = dose: 400.0 mg/kg/injection, schedule: Q04DX003 (ip), vehicle: saline
[4] = dose: 100.0 mg/kg/injection, schedule: Q01DX001 (ip), vehicle: carboxymethylcellulose (CMC)
[5] = dose: 25.0 mg/kg/injection, schedule: Q04DX003 (ip), vehicle: Klucel (hydroxypropylcellulose) (HPC)
[6] = dose: 50.0 mg/kg/injection, schedule: Q01DX001 (ip), vehicle: saline
[7] = dose: 100.0 mg/kg/injection, schedule: Q01DX001 (ip), vehicle: saline
[8] = dose: 200.0 mg/kg/injection, schedule: Q01DX001 (ip), vehicle: saline
[9] = dose: 100.0 mg/kg/injection, schedule: Q01DX009 (ip), vehicle: Klucel (hydroxypropylcellulose) (HPC)
[10] = dose: 100.0 mg/kg/injection, schedule: Q04DX002 (ip), vehicle: Klucel (hydroxypropylcellulose) (HPC)
[11] = dose: 100.0 mg/kg/injection, schedule: Q04DX003 (ip), vehicle: Klucel (hydroxypropylcellulose) (HPC)
[12] = dose: 200.0 mg/kg/injection, schedule: Q01DX009 (ip), vehicle: Klucel (hydroxypropylcellulose) (HPC)
[13] = dose: 200.0 mg/kg/injection, schedule: Q04DX002 (ip), vehicle: Klucel (hydroxypropylcellulose) (HPC)
[14] = dose: 200.0 mg/kg/injection, schedule: Q04DX003 (ip), vehicle: Klucel (hydroxypropylcellulose) (HPC)
[15] = dose: 400.0 mg/kg/injection, schedule: Q01DX009 (ip), vehicle: Klucel (hydroxypropylcellulose) (HPC)
[16] = dose: 400.0 mg/kg/injection, schedule: Q04DX002 (ip), vehicle: Klucel (hydroxypropylcellulose) (HPC)
[17] = dose: 400.0 mg/kg/injection, schedule: Q04DX003 (ip), vehicle: Klucel (hydroxypropylcellulose) (HPC)
[18] = dose: 50.0 mg/kg/injection, schedule: Q01DX009 (ip), vehicle: Klucel (hydroxypropylcellulose) (HPC)
[19] = dose: 100.0 mg/kg/injection, schedule: Q04DX003 (ip), vehicle: saline with Tween-80
[20] = dose: 200.0 mg/kg/injection, schedule: Q04DX003 (ip), vehicle: saline with Tween-80
[21] = dose: 400.0 mg/kg/injection, schedule: Q04DX003 (ip), vehicle: saline with Tween-80
[22] = dose: 200.0 mg/kg/injection, schedule: Q01DX001 (ip), vehicle: carboxymethylcellulose (CMC)
[23] = dose: 400.0 mg/kg/injection, schedule: Q01DX001 (ip), vehicle: carboxymethylcellulose (CMC)
[24] = dose: 100.0 mg/kg/injection, schedule: Q01DX001 (ip), vehicle: Klucel (hydroxypropylcellulose) (HPC)
[25] = dose: 200.0 mg/kg/injection, schedule: Q01DX001 (ip), vehicle: Klucel (hydroxypropylcellulose) (HPC)
[26] = dose: 50.0 mg/kg/injection, schedule: Q04DX003 (ip), vehicle: Klucel (hydroxypropylcellulose) (HPC)

Measured: T/C

[CeH3]
inactive: dose: 100.0 mg/kg/injection, schedule: Q04DX003 (sc), vehicle: olive oil, sesame oil, peanut oil 98 % of control | dose: 200.0 mg/kg/injection, schedule: Q04DX003 (sc), vehicle: olive oil, sesame oil, peanut oil 108 % of control | dose: 400.0 mg/kg/injection, schedule: Q04DX003 (sc), vehicle: olive oil, sesame oil, peanut oil 91 % of control

CCOP(=O)(Cc1ccccc1)OCC
inactive: [1] 110 % of control | [2] 103 % of control | [3] 98 % of control

CN(CCCCN(C)P(=O)(N1CC1)N1CC1)P(=O)(N1CC1)N1CC1
inactive: [4] 88 % of control

O=[N+]([O-])c1ccc([N+](=O)[O-])c2nsnc12
inactive: dose: 12.5 mg/kg/injection, schedule: Q04DX003 (ip), vehicle: Klucel (hydroxypropylcellulose) (HPC) 98 % of control | [5] 102 % of control

COCC/C(COC)=N/N
inactive: [6] 103 % of control | [7] 103 % of control | [8] 122 % of control

Cc1ccnc(NC(=O)Nc2cc(F)ccc2F)c1
inactive: [9] 92 % of control and 103 % of control | [10] 101 % of control and 90 % of control | [11] 97 % of control | [12] 92 % of control and 89 % of control | [13] 90 % of control | [14] 93 % of control | [15] 94 % of control and 98 % of control | [16] 95 % of control and 90 % of control | [17] 87 % of control

O=P(O)(O)c1ccc(N=Nc2ccc(P(=O)(O)O)cc2)cc1
inactive: [1] 94 % of control | [2] 107 % of control | [3] 97 % of control

O=C(Oc1ccc(Cl)cc1)c1ccc(Cl)cc1
inactive: [18] 101 % of control | [9] 94 % of control | [11] 101 % of control | [12] 95 % of control | [14] 99 % of control | [17] 92 % of control

COC(=O)NC1CC(CO)CC1O (stereo unspecified)
inactive: [18] 91 % of control | [9] 89 % of control | [12] 91 % of control

O=C(C#CC(=O)c1ccccc1)c1ccccc1
inactive: dose: 20.0 mg/kg/injection, schedule: Q04DX003 (ip), vehicle: gum acacia 95 % of control | dose: 40.0 mg/kg/injection, schedule: Q04DX003 (ip), vehicle: gum acacia 101 % of control | dose: 80.0 mg/kg/injection, schedule: Q04DX003 (ip), vehicle: gum acacia 100 % of control

CCOC(=O)C1=C(Nc2ccccc2)CSC1
inactive: dose: 25.0 mg/kg/injection, schedule: Q01DX009 (ip), vehicle: water 100 % of control | dose: 50.0 mg/kg/injection, schedule: Q01DX009 (ip), vehicle: water 101 % of control | dose: 100.0 mg/kg/injection, schedule: Q01DX009 (ip), vehicle: water 94 % of control | dose: 200.0 mg/kg/injection, schedule: Q01DX009 (ip), vehicle: water 102 % of control | dose: 400.0 mg/kg/injection, schedule: Q01DX009 (ip), vehicle: water 89 % of control

O=P(CCCl)(OCCCl)OCCCl
inactive: [19] 94 % of control | [20] 109 % of control | [21] 109 % of control

CN(C)C1=CC(=N/S(=O)(=O)c2ccccc2)/C(N(C)C)=CC/1=N/S(=O)(=O)c1ccccc1
inactive: [19] 88 % of control | [20] 90 % of control | [21] 87 % of control

O=S(=O)(Nc1cc(C(F)(F)F)ccc1Cl)c1ccc(Cl)cc1
inactive: dose: 100.0 mg/kg/injection, schedule: Q04DX002 (ip), vehicle: saline 90 % of control | dose: 200.0 mg/kg/injection, schedule: Q04DX002 (ip), vehicle: saline 106 % of control | dose: 400.0 mg/kg/injection, schedule: Q04DX002 (ip), vehicle: saline 97 % of control

NC(=O)C(C(N)=O)C1CCCCc2ccccc21 (stereo unspecified)
inactive: [4] 90 % of control | [22] 106 % of control | [23] 88 % of control

O=C(CN1CCCCC1)Nc1ccc(S(=O)(=O)c2ccc([N+](=O)[O-])cc2)cc1
inactive: dose: 75.0 mg/kg/injection, schedule: Q01DX001 (ip), vehicle: saline 87 % of control

CC(C)CC(C)NCC(C)OC(=O)c1ccc(N)cc1 (stereo unspecified)
inactive: dose: 75.0 mg/kg/injection, schedule: Q01DX001 (ip), vehicle: other 110 % of control

O=Nc1ccc(O)c(Cl)c1
inactive: [24] 95 % of control | [25] 98 % of control

Cc1cc(Cl)c(N)[c]([Hg][I])c1F
inactive: dose: 12.0 mg/kg/injection, schedule: Q01DX001 (ip), vehicle: Klucel (hydroxypropylcellulose) (HPC) 90 % of control | dose: 25.0 mg/kg/injection, schedule: Q01DX001 (ip), vehicle: Klucel (hydroxypropylcellulose) (HPC) 86 % of control | dose: 50.0 mg/kg/injection, schedule: Q01DX001 (ip), vehicle: Klucel (hydroxypropylcellulose) (HPC) 92 % of control

CCC(C)C(NC(=O)CNC(=O)OC(C)(C)C)C(=O)NC(C(=O)NC(CCC(=O)OC(C)(C)C)C(=O)NN)C(C)C (stereo unspecified) (Boc-GIVE(OtBu)-NHNH2; configuration not given here)
inactive: dose: 75.0 mg/kg/injection, schedule: Q01DX001 (ip), vehicle: saline sonified 100 % of control | dose: 150.0 mg/kg/injection, schedule: Q01DX001 (ip), vehicle: saline sonified 92 % of control | dose: 300.0 mg/kg/injection, schedule: Q01DX001 (ip), vehicle: saline sonified 106 % of control

O=C(O)COc1c(Cl)c(Cl)c(Cl)c(Cl)c1Cl
inactive: dose: 100.0 mg/kg/injection, schedule: Q01DX009 (ip), vehicle: saline with Tween-80 93 % of control

CCOC1(O)C(=O)c2ccccc2OC1(OCC)c1ccccc1 (stereo unspecified)
inactive: [6] 93 % of control | [7] 96 % of control | [8] 96 % of control | dose: 400.0 mg/kg/injection, schedule: Q01DX001 (ip), vehicle: saline 98 % of control

O=C(c1ccc([N+](=O)[O-])cc1)C1NC1c1ccccc1 (stereo unspecified)
inactive: dose: 50.0 mg/kg/injection, schedule: Q01DX001 (ip), vehicle: carboxymethylcellulose (CMC) 91 % of control | [4] 97 % of control | [22] 100 % of control | [23] 91 % of control

COc1cc(OC)cc(C(O)C(C)NC(C)C)c1 (stereo unspecified)
inactive: dose: 6.25 mg/kg/injection, schedule: Q01DX009 (ip), vehicle: Klucel (hydroxypropylcellulose) (HPC) 95 % of control | dose: 12.5 mg/kg/injection, schedule: Q01DX009 (ip), vehicle: Klucel (hydroxypropylcellulose) (HPC) 92 % of control | dose: 12.5 mg/kg/injection, schedule: Q04DX003 (ip), vehicle: saline 108 % of control | dose: 25.0 mg/kg/injection, schedule: Q01DX009 (ip), vehicle: Klucel (hydroxypropylcellulose) (HPC) 92 % of control | dose: 25.0 mg/kg/injection, schedule: Q04DX003 (ip), vehicle: saline 97 % of control | [18] 95 % of control | dose: 50.0 mg/kg/injection, schedule: Q04DX003 (ip), vehicle: saline 105 % of control | [9] 101 % of control | [1] 103 % of control

CC(=O)NCCOc1ccc([N+](=O)[O-])cc1
inactive: [24] 102 % of control | [25] 102 % of control | dose: 400.0 mg/kg/injection, schedule: Q01DX001 (ip), vehicle: Klucel (hydroxypropylcellulose) (HPC) 102 % of control

Cc1ccc(NC(=O)Nc2cc(C)on2)c([N+](=O)[O-])c1
inactive: [5] 96 % of control | [26] 96 % of control | [11] 100 % of control and 91 % of control

O=C1c2ccccc2-c2ccc(Br)c3cccc1c23
inactive: [18] 93 % of control | [26] 100 % of control | [9] 91 % of control | [11] 95 % of control | [12] 91 % of control | [14] 100 % of control

N\C([S-])=N/N=C\C(=N/N=C(\N)[S-])C(O)C(O)C(O)CO.[Pd+2] (stereo unspecified)
inactive: [1] 93 % of control | [2] 91 % of control

CCCCCCCCCCCC(=O)Nc1ccc(N(C)C(C)=O)cc1
inactive: [9] 90 % of control | [10] 89 % of control | [12] 95 % of control | [13] 100 % of control | [15] 97 % of control | [16] 100 % of control
